Values of other authors, collected in PubChem BioAssay AID1259409 (Chemical Carcinogenesis Research Information System (CCRIS), 2018).

Tested on: rodent chemically induced tumor inhibition, incidence and multiplicity
Assay: CCRIS tumor inhibitor studies
Details: Species: MOUSE

In the case of O=c1c(O)c(-c2ccc(O)c(O)c2)oc2cc(O)cc(O)c12, the “tumour outcome (control, treated, inhibition, significance)” value (Carcinogen: 7,12-DIMETHYLBENZ[A]ANTHRACENE, 57-97-6, Dose [Inhibitor]: 30 UMOL IN 100 µL ACETONE/DIMETHYL SULFOXIDE (4/1, V/V) 2/WK 40 MINUTES BEFORE AND CONCURRENTLY WITH EACH PROMOTER TREAT, Route [Inhibitor]: DERMAL, Strain/Sex: ICR/FEMALE, Target Tissue: Type of Lesion: SKIN: PAPILLOMA, Dose [Carcinogen]: 100 UG IN 100 µL ACETONE ONCE, Promoter: TELEOCIDIN, 78474-55-2) is given as 80%, 30%, 63%, not calculated, the “tumour outcome (control, treated, inhibition, significance)” value (Carcinogen: 7,12-DIMETHYLBENZ[A]ANTHRACENE, 57-97-6, Dose [Inhibitor]: 100 UG IN 0.2 ML ACETONE ONCE 5 MIN BEFORE CARCINOGEN TREATMENT (STUDY DURATION: 31 WK), Route [Inhibitor]: DERMAL, Strain/Sex: CD-1/FEMALE, Target Tissue: Type of Lesion: SKIN: PAPILLOMA, Dose [Carcinogen]: 10 NMOL IN 0.2 ML ACETONE ONCE, Promoter: 12-O-TETRADECANOYLPHORBOL-13-ACETATE, 16561-29-8) is given as 87%, 70%, 20%, not calculated and the “tumour outcome (control, treated, inhibition, significance)” value (Carcinogen: (+/-)-7BETA,8ALPHA-DIHYDROXY-9ALPHA,10ALPHA-EPOXY-7,8,9,10- TETRAHYDROBENZO[A]PYRENE, 58917-67-2, Dose [Inhibitor]: 3000 NMOL IN 0.2 ML ACETONE 1/D FOR 7 D (STUDY DURATION: 18 WK), Route [Inhibitor]: DERMAL, Strain/Sex: SENCAR/FEMALE, Target Tissue: Type of Lesion: SKIN: TUMOR, Dose [Carcinogen]: 200 NMOL IN 0.2 ML ACETONE ONCE 30 MIN POST LAST CARCINOGEN DOSE, Promoter: 12-O-TETRADECANOYLPHORBOL-13-ACETATE, 16561-29-8) is given as 75%, 65%, 13%, not significant. For the same molecule, the “tumour outcome (control, treated, inhibition, significance)” value (Carcinogen: (+/-)-7BETA,8ALPHA-DIHYDROXY-9ALPHA,10ALPHA-EPOXY-7,8,9,10-TETRAHYDROBENZO[A]PYR ENE, 58917-67-2, Dose [Inhibitor]: 0, 1400 NMOL (TOTAL DOSE) APPLIED 10 MIN PRIOR TO CARCINOGEN DOSE INJECTED AS 1/7, 2/7, AND 4/7 OF THE TOTAL ON DAYS 1,, Route [Inhibitor]: INTRAPERITONEAL, Strain/Sex: ICR/MALE,FEMALE, Target Tissue: Type of Lesion: LUNG: TUMOR, Dose [Carcinogen]: 30 NMOL (TOTAL DOSE) INJECTED IN DOSES OF 1/7, 2/7, AND 4/7 ON DAYS 1, 8, AND 15 OF LIFE, RESPECTIVELY, Promoter: NONE USED) was 93%, 81%, 13%, not significant, the “tumour outcome (control, treated, inhibition, significance)” value (Carcinogen: (+/-)-7BETA,8ALPHA-DIHYDROXY-9ALPHA,10ALPHA-EPOXY-7,8,9,10-TETRAHYDROBENZO[A]PYR ENE, 58917-67-2, Dose [Inhibitor]: 0, 2500 NMOL IN 200 µL ACETONE:DMSO (90:10) ONCE APPLIED 5 MIN PRIOR TO CARCINOGEN DOSE (STUDY DURATION: 21 WK), Route [Inhibitor]: DERMAL, Strain/Sex: CD-1/FEMALE, Target Tissue: Type of Lesion: SKIN: TUMOR, Dose [Carcinogen]: 200 NMOL IN ACETONE:DMSO (90:10) ONCE, Promoter: 12-O-TETRADECANOYLPHORBOL-13-ACETATE, 16561-29-8) was 59%, 69%, -17%, not significant and the “tumour outcome (control, treated, inhibition, significance)” value (Carcinogen: AZOXYMETHANE, 25843-45-2, Dose [Inhibitor]: 0, 0.1% IN DIET FOR DURATION OF STUDY (STUDY DURATION: 48 WK), Route [Inhibitor]: ORAL, Strain/Sex: CF-1/FEMALE, Target Tissue: Type of Lesion: COLON: TUMOR, Dose [Carcinogen]: 10 MG/KG BW 3 TIMES, Promoter: NONE USED) was 8/32 (25%), 5/32 (16%), 36%, not significant. The “tumour outcome (control, treated, inhibition, significance)” value (Carcinogen: AZOXYMETHANE, 25843-45-2, Dose [Inhibitor]: 0, 0.5% IN DIET FOR DURATION OF STUDY (STUDY DURATION: 48 WK), Route [Inhibitor]: ORAL, Strain/Sex: CF-1/FEMALE, Target Tissue: Type of Lesion: COLON: TUMOR, Dose [Carcinogen]: 10 MG/KG BW 3 TIMES, Promoter: NONE USED) was 8/32 (25%), 7/35 (20%), 20%, not significant, the “tumour outcome (control, treated, inhibition, significance)” value (Carcinogen: AZOXYMETHANE, 25843-45-2, Dose [Inhibitor]: 0, 2% IN DIET FOR DURATION OF STUDY (STUDY DURATION: 48 WK), Route [Inhibitor]: ORAL, Strain/Sex: CF-1/FEMALE, Target Tissue: Type of Lesion: COLON: TUMOR, Dose [Carcinogen]: 10 MG/KG BW 3 TIMES, Promoter: NONE USED) was 8/32 (25%), 2/34 (6%), 76%, p=0.003 and the “tumour outcome (control, treated, inhibition, significance)” value (Carcinogen: BENZO[A]PYRENE, 50-32-8, Dose [Inhibitor]: 0, 1400 NMOL (TOTAL DOSE) APPLIED 10 MIN PRIOR TO CARCINOGEN DOSE INJECTED AS 1/7, 2/7, AND 4/7 OF THE TOTAL ON DAYS 1,, Route [Inhibitor]: INTRAPERITONEAL, Strain/Sex: ICR/MALE,FEMALE, Target Tissue: Type of Lesion: LUNG: TUMOR, Dose [Carcinogen]: 450 NMOL (TOTAL DOSE) INJECTED IN DOSES OF 1/7, 2/7, AND 4/7 ON DAYS 1, 8, AND 15 OF LIFE, RESPECTIVELY, Promoter: NONE USED) was 73%, 68%, 7%, not significant. The “tumour outcome (control, treated, inhibition, significance)” value (Carcinogen: BENZO[A]PYRENE, 50-32-8, Dose [Inhibitor]: 0, 2500 NMOL IN 200 µL ACETONE:DMSO (90:10) ONCE APPLIED 5 MIN PRIOR TO CARCINOGEN DOSE (STUDY DURATION: 21 WK), Route [Inhibitor]: DERMAL, Strain/Sex: CD-1/FEMALE, Target Tissue: Type of Lesion: SKIN: TUMOR, Dose [Carcinogen]: 50 NMOL IN ACETONE:DMSO (90:10) ONCE, Promoter: 12-O-TETRADECANOYLPHORBOL-13-ACETATE, 16561-29-8) was 50%, 45%, 10%, not significant, the “tumour outcome (control, treated, inhibition, significance)” value (Carcinogen: BENZO[A]PYRENE, 50-32-8, Dose [Inhibitor]: 0, 12500 NMOL IN 200 µL ACETONE:DMSO (90:10) ONCE APPLIED 5 MIN PRIOR TO CARCINOGEN DOSE (STUDY DURATION: 21 WK), Route [Inhibitor]: DERMAL, Strain/Sex: CD-1/FEMALE, Target Tissue: Type of Lesion: SKIN: TUMOR, Dose [Carcinogen]: 50 NMOL IN ACETONE:DMSO (90:10) ONCE, Promoter: 12-O-TETRADECANOYLPHORBOL-13-ACETATE, 16561-29-8) was 50%, 55%, -10%, not significant and the “tumour outcome (control, treated, inhibition, significance)” value (Carcinogen: BENZO[A]PYRENE, 50-32-8, Dose [Inhibitor]: 25 MG IN 0.1 ML DMSO 3/WK ADMINISTERED SIMULTANEOUSLY WITH CARCINOGEN FOR DURATION OF STUDY (STUDY DURATION: 368 D), Route [Inhibitor]: DERMAL, Strain/Sex: ICR/FEMALE, Target Tissue: Type of Lesion: SKIN: SQUAMOUS CARCINOMA, Dose [Carcinogen]: 5 UG IN 0.1 ML DMSO THAT ALSO CONTAINED AGENT 3/WK FOR DURATION OF STUDY, Promoter: NONE USED) was 6/50 (12%), 0/50 (0%), 100%, not calculated.
